Our source for the IC50 values is the Kinase Knowledgebase extract (Sharma et al. 2016).

For the assay, the target named is PIK3CG (human) (UniProt P48736). Nature of the assay: Assessment of PIK3CG Kinase Activity.
PIK3CG (human), sequence (P48736 whole entry, looked up): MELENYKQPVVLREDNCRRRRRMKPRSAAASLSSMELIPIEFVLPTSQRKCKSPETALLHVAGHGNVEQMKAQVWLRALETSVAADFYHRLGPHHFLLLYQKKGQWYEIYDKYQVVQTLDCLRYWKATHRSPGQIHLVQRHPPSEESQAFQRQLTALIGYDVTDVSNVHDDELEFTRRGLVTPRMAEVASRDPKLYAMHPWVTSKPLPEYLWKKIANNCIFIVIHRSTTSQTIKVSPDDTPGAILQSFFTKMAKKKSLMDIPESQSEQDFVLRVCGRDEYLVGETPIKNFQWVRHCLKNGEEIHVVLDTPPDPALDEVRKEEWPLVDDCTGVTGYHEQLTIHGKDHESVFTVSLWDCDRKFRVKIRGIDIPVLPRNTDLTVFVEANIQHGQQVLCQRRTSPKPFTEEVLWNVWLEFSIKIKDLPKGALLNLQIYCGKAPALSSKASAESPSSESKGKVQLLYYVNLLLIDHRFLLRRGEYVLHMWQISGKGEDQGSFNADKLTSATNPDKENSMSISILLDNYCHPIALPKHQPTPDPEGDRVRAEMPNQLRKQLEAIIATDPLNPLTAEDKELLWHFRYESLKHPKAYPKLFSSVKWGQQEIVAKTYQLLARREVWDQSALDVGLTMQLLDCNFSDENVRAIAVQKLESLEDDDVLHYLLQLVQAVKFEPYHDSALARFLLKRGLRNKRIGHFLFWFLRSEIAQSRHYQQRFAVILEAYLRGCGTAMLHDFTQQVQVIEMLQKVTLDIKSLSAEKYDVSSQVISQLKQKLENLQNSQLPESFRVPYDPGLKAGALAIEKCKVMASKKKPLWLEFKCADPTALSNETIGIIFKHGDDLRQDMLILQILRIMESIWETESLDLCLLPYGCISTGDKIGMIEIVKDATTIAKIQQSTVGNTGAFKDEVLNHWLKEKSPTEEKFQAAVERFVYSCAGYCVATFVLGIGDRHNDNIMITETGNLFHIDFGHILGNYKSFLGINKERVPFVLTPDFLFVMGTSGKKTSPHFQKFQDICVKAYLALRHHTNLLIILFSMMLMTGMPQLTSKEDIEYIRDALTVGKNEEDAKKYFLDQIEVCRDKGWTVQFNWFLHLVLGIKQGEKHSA

With `CC(=O)Nc1nc2c(s1)-c1c(cnn1-c1ccc(C(=O)N[C@H](Cc3cnc[nH]3)C(N)=O)cc1Cl)CC2`, the IC50 is < 0.8 µM.

In the case of `COCc1nn(-c2ccccc2)c2c1CCc1nc(NC(C)=O)sc1-2`, the IC50 was < 0.8 µM.

In the case of `CC(=O)Nc1nc2c(s1)-c1nc(C)ncc1CC2`, the IC50 was < 0.8 µM.

Take `COC(=O)c1nn(-c2ccccc2Cl)c2c1CCc1nc(NC(C)=O)sc1-2`: the IC50 is < 0.8 µM.

Take `CC(=O)Nc1nc2c(s1)-c1c(cnn1-c1ccc(C(=O)NCc3nc4ccccc4[nH]3)cc1)CC2`: the IC50 is < 0.8 µM.

With `CC(=O)Nc1nc2c(s1)-c1c(cnn1-c1ccc(CC(=O)N(C)CC(=O)N3CCOCC3)cc1)CC2`, the IC50 was < 0.8 µM.

`CC(=O)Nc1nc2c(s1)-c1c(cnn1-c1ccc(C(=O)NCCC(=O)O)cc1)CC2`: the IC50 is < 0.8 µM.

`CC(=O)Nc1nc2c(s1)-c1c(cnn1-c1ccc(C(=O)NC(C)(C)CN3CCCCC3)cc1)CC2`: the IC50 was < 0.8 µM.

In the case of `CC(=O)Nc1nc2c(s1)-c1c(cnn1-c1ccccc1C(F)(F)F)C2`, the IC50 is < 0.8 µM.

As for `COC(=O)c1nn(-c2ccc(C)cc2)c2c1CCc1nc(NC(C)=O)sc1-2`, the IC50 is < 0.8 µM.

For `CC(=O)Nc1nc2c(s1)-c1c(cnn1-c1ccc(C(=O)N[C@@H](Cc3c[nH]cn3)C(N)=O)cc1Cl)CC2`, the IC50 is < 0.8 µM.

For `CC(=O)Nc1nc2c(s1)-c1c(cnn1-c1ccc(C(=O)N[C@@H](CC(=O)O)C(N)=O)cc1Cl)CC2`, the concentration for half-maximal inhibition (IC50) was < 0.8 µM.

`CC(=O)Nc1nc2c(s1)-c1nc(-c3ccccc3)[nH]c(=O)c1CC2`: the IC50 is < 0.8 µM.

With `COCc1nn(-c2ccc(C(=O)N[C@H]3CC[C@H](N4CCCC4)CC3)cc2Cl)c2c1CCc1nc(NC(C)=O)sc1-2`, the IC50 is < 0.8 µM.

Take `CC(=O)Nc1nc2c(s1)-c1c(cnn1-c1ccccc1F)CC2`: the IC50 is < 0.8 µM.

`COCc1nn(-c2ccc(C(=O)N(C)Cc3ccncc3)cc2Cl)c2c1CCc1nc(NC(C)=O)sc1-2`: the IC50 was < 0.8 µM.

Take `CC(C)(C)NC(=O)NCC#CCNC(=O)Nc1nc2c(s1)-c1c(cnn1-c1ccccc1)CC2`: the IC50 is < 0.8 µM.

For the compound `CCC(=O)Nc1nc2c(s1)-c1nc(-c3ccccc3)ncc1CC2`, the IC50 was < 0.8 µM.

Take `CC(=O)Nc1nc2c(s1)-c1c(c(C(=O)N(C)CCO)nn1-c1ccccc1)CC2`: the IC50 was < 0.8 µM.

Take `CC(=O)Nc1nc2c(s1)-c1nc(NCCCC(=O)O)ncc1CC2`: the IC50 is < 0.8 µM.

In the case of `CC(=O)Nc1nc2c(s1)-c1c(cnn1-c1ccc(C(=O)N3CCCC(CO)C3)cc1)CC2` (centres undefined), the IC50 is < 0.8 µM.

`CC(=O)Nc1nc2c(s1)-c1c(cnn1-c1ccc(C(=O)NCCCCCCNC(=O)c3ccccc3)cc1)CC2`: the IC50 was < 0.8 µM.

Take `CC(=O)Nc1nc2c(s1)-c1c(cnn1-c1ccc(C(=O)NC3CCC4(CC3)OCCO4)cc1)CC2`: the IC50 is < 0.8 µM.

In the case of `CC(=O)Nc1nc2c(s1)-c1c(c(NC(=O)NC(C)C)nn1-c1ccccc1Cl)CC2`, the IC50 was < 0.8 µM.

On to `CC(=O)Nc1nc2c(s1)-c1c(cnn1-c1ccc(C(=O)N[C@H]3CC[C@H](N4CCN(c5ccccc5)CC4)CC3)cc1)CC2`, for which the IC50 is < 0.8 µM.

Take `CC(=O)Nc1nc2c(s1)-c1c(c(C(=O)N3CCOCC3)nn1-c1ccccc1Cl)CC2`: the IC50 is < 0.8 µM.

Turning to `CC(=O)Nc1nc2c(s1)-c1c(c(-c3ccccc3)nn1-c1ccccc1C(F)(F)F)CC2`, the IC50 was < 0.8 µM.

Regarding `CC(=O)Nc1nc2c(s1)-c1c(c(C#C[Si](C)(C)C)nn1-c1ccccc1Cl)CC2`, the IC50 is < 0.8 µM.

As for `CC(=O)Nc1nc2c(s1)-c1c(cnn1-c1ccc(C(=O)N3CCCC(=O)CC3)cc1)CC2`, the IC50 is < 0.8 µM.

Regarding `CC(=O)Nc1nc2c(s1)-c1c(cnn1-c1ccc(C(=O)N3CCCC3c3ccncc3)cc1)CC2` (centres undefined), the IC50 is < 0.8 µM.

Turning to `CC(=O)Nc1nc2c(s1)-c1c(c(-c3ccco3)nn1-c1ccccc1C)CC2`, the IC50 is < 0.8 µM.

`CC(=O)Nc1nc2c(s1)-c1c(cnn1-c1ccc(C(=O)N[C@H](C(N)=O)[C@@H](C)O)cc1Cl)CC2`: the IC50 is < 0.8 µM.

Take `CC(=O)Nc1nc2c(s1)-c1c(cnn1-c1ccc(C(=O)N3CCS(=O)(=O)CC3)cc1)CC2`: the IC50 is < 0.8 µM.

With `CC(=O)Nc1nc2c(s1)-c1c(cnn1-c1ccc(C(=O)N[C@H]3CC[C@@H](N4CCN(c5ccccc5)CC4)CC3)cc1)CC2`, the IC50 was < 0.8 µM.

In the case of `CC(=O)Nc1nc2c(s1)-c1c(cnn1-c1ccc(C(=O)NCc3nccn3C)cc1)CC2`, the IC50 is < 0.8 µM.

As to `CC(=O)Nc1nc2c(s1)-c1c(c(C)nn1-c1ccccc1)CC2`, the IC50 is < 0.8 µM.

In the case of `CC(=O)Nc1nc2c(s1)-c1c(cnn1-c1ccc(C(=O)NCc3ccccc3O)cc1)CC2`, the IC50 was < 0.8 µM.

`CC(=O)Nc1nc2c(s1)-c1c(cnn1-c1ccc(C(=O)N[C@@H](CCCCN)C(N)=O)cc1Cl)CC2`: the IC50 is < 0.8 µM.

On to `CC(=O)Nc1nc2c(s1)-c1c(cnn1-c1ccc(CC(=O)N3CCc4cn[nH]c4C3)cc1)CC2`, for which the concentration for half-maximal inhibition (IC50) was < 0.8 µM.

For `CC(=O)Nc1nc2c(s1)-c1c(c([C@@H]3CCCO3)nn1-c1ccccc1Cl)CC2`, the IC50 was < 0.8 µM.

Regarding `CC(=O)Nc1nc2c(s1)-c1c(cnn1-c1cccc(N3C4CCC3CC(O)C4)c1)CC2` (centres undefined), the IC50 was < 0.8 µM.

For `CC(=O)Nc1nc2c(s1)-c1nn(-c3ccccc3Cl)c(-c3cn(C)cn3)c1CC2`, the IC50 was < 0.8 µM.

Consider `CC(=O)Nc1nc2c(s1)-c1c(cnn1-c1ccc(C(=O)N3C[C@@H](C)O[C@@H](C)C3)cc1Cl)CC2`, for which the IC50 was < 0.8 µM.

As to `CC(=O)Nc1nc2c(s1)-c1c(cnn1-c1ccc(C(=O)N(C)CC(=O)N3CCOCC3)cc1)CC2`, the IC50 is < 0.8 µM.

For `CC(=O)Nc1nc2c(s1)-c1c(c(-c3ccoc3)nn1-c1ccccc1Cl)CC2`, the IC50 is < 0.8 µM.

As for `CC(=O)Nc1nc2c(s1)-c1nc(CCc3ccccc3)ncc1CC2`, the IC50 is < 0.8 µM.

As to `CC(=O)Nc1nc2c(s1)-c1c(cnn1-c1ccc(CC(=O)N3CCC(CO)CC3)cc1)CC2`, the IC50 is < 0.8 µM.

As for `CC(=O)Nc1nc2c(s1)-c1c(cnn1-c1ccc(Cl)cc1)C2`, the IC50 was < 0.8 µM.

As to `CC(=O)Nc1nc2c(s1)-c1nc(Cc3c(Cl)cccc3Cl)ncc1CC2`, the IC50 is < 0.8 µM.

For `CNC(=O)Nc1nc2c(s1)-c1c(cnn1-c1ccccc1Cl)C2`, the IC50 is < 0.8 µM.

In the case of `COCc1nn(-c2ccccc2Br)c2c1CCc1nc(NC(C)=O)sc1-2`, the IC50 is < 0.8 µM.

`Nc1nc2c(s1)-c1c(cnn1-c1ccccc1)C2`: the IC50 is < 0.8 µM.

Turning to `CC(=O)Nc1nc2c(s1)-c1nc(N(C)CCCN(C)C)ncc1CC2`, the IC50 was < 0.8 µM.

Consider `CC(=O)Nc1nc2c(s1)-c1c(c(-c3ccccc3)nn1-c1ccccc1C)CC2`, for which the concentration for half-maximal inhibition (IC50) was < 0.8 µM.

On to `CC(=O)Nc1nc2c(s1)-c1c(cnn1-c1ccc(C(=O)NCc3ccc(C(N)=O)cc3)cc1)CC2`, for which the IC50 is < 0.8 µM.

`CC(=O)Nc1nc2c(s1)-c1c(c([C@H]3CCCO3)nn1-c1ccccc1Br)CC2`: the IC50 was < 0.8 µM.

On to `CC(=O)Nc1nc2c(s1)-c1c(cnn1-c1ccc(CC(=O)N3CCCC(C(N)=O)C3)cc1)CC2` (centres undefined), for which the IC50 is < 0.8 µM.

Take `CC(=O)Nc1nc2c(s1)-c1c(cnn1-c1ccc(C(=O)N[C@@H](COCc3ccccc3)C(N)=O)cc1Cl)CC2`: the IC50 was < 0.8 µM.

For the compound `CC(=O)Nc1nc2c(s1)-c1c(cnn1-c1ccc(CC(=O)NCCN3CCNC3=O)cc1)CC2`, the IC50 was < 0.8 µM.

For the compound `CC(=O)Nc1nc2c(s1)-c1c(cnn1-c1ccc(F)cc1)CC2`, the IC50 is < 0.8 µM.

For `CC(=O)Nc1nc2c(s1)-c1c(cnn1-c1ccc(C(=O)N[C@H](Cc3ccc(O)cc3)C(N)=O)cc1)CC2`, the half-maximal inhibitory concentration (IC50) is < 0.8 µM.

`CC(=O)Nc1nc2c(s1)-c1c(cnn1-c1ncccn1)CC2`: the IC50 is < 0.8 µM.

With `CC(=O)Nc1nc2c(s1)-c1c(cnn1-c1ccc(C(=O)N3CCC[C@@H]3C(N)=O)cc1)CC2`, the IC50 was < 0.8 µM.

Take `CNC(=O)c1ccc(-c2ncc3c(n2)-c2sc(NC(C)=O)nc2CC3)cc1`: the IC50 was < 0.8 µM.

`CC(=O)Nc1nc2c(s1)-c1c(cnn1-c1ccc(C(=O)N[C@H]3CC[C@@H](N4CCN(CC5CC5)CC4)CC3)cc1)CC2`: the IC50 was < 0.8 µM.

Take `CC(=O)Nc1nc2c(s1)-c1nc(Cc3ccccc3)ncc1CC2`: the IC50 was < 0.8 µM.

For `CC(=O)Nc1nc2c(s1)-c1c(cnn1-c1ccc(C(=O)N(C)Cc3nccn3C)cc1)CC2`, the IC50 was < 0.8 µM.

In the case of `CC(=O)Nc1nc2c(s1)-c1c(c(C)nn1-c1ccccc1C(F)(F)F)CC2`, the IC50 is < 0.8 µM.

For `CC(=O)Nc1nc2c(s1)-c1c(cnn1-c1ccc(C(=O)N(C)CCO)cc1)CC2`, the IC50 was < 0.8 µM.

Regarding `O=C(CNC[C@H](O)[C@@H](O)[C@H](O)[C@H](O)CO)Nc1nc2c(s1)-c1c(cnn1-c1ccccc1)CC2`, the IC50 was < 0.8 µM.

Regarding `CC(=O)Nc1nc2c(s1)-c1c(cnn1-c1ccc(S(=O)(=O)N3CCN(C)CC3)cc1)CC2`, the IC50 was < 0.8 µM.

On to `CC(=O)Nc1nc2c(s1)-c1c(cnn1-c1ccc(C(=O)N[C@H]3CC[C@@H](N4C[C@@H](C)O[C@@H](C)C4)CC3)cc1)CC2`, for which the IC50 was < 0.8 µM.

For the compound `CN(C)CCCC(=O)Nc1nc2c(s1)-c1c(cnn1-c1ccccc1)C2`, the IC50 is < 0.8 µM.

`CC(=O)Nc1nc2c(s1)-c1c(c(-c3c[nH]cn3)nn1-c1ccccc1Cl)CC2`: the IC50 is < 0.8 µM.

In the case of `CC(=O)Nc1nc2c(s1)-c1nn(C(=O)c3ccc(Cl)cc3)cc1CC2`, the IC50 is < 0.8 µM.

As to `CC(=O)Nc1nc2c(s1)-c1c(cnn1-c1ccc(C(=O)N[C@H]3CC[C@H](NC(=O)Cc4ccccc4)CC3)cc1)CC2`, the IC50 was < 0.8 µM.

Turning to `CC(=O)Nc1nc2c(s1)-c1c(c(-c3ccoc3)nn1-c1ccc(Cl)cc1)CC2`, the IC50 was < 0.8 µM.

`CC(=O)Nc1nc2c(s1)-c1c(cnn1-c1ccc(S(N)(=O)=O)cc1)CC2`: the IC50 is < 0.8 µM.

As for `CC(=O)Nc1nc2c(s1)-c1c(cnn1-c1cccc(C(=O)O)c1)CC2`, the concentration for half-maximal inhibition (IC50) was < 0.8 µM.

As to `CC(=O)Nc1nc2c(s1)-c1c(cnn1-c1ccc(CC(=O)NC3CCOC3=O)cc1)CC2` (centres undefined), the IC50 is < 0.8 µM.

Regarding `CC(=O)Nc1nc2c(s1)-c1c(cnn1-c1ccc(C(=O)N3CCOCC3)cc1Cl)CC2`, the IC50 was < 0.8 µM.

Turning to `O=CNc1nc2c(s1)-c1c(cnn1-c1ccccc1)CC2`, the IC50 was < 0.8 µM.

As for `CC(=O)Nc1nc2c(s1)-c1c(cnn1-c1ccc(C(=O)N[C@H](C(N)=O)C(C)C)cc1Cl)CC2`, the IC50 is < 0.8 µM.

On to `COC(=O)Nc1nc2c(s1)-c1c(cnn1-c1ccccc1)CC2`, for which the IC50 is < 0.8 µM.
